For experiment [1], the target named is T1, Ephrin type-A receptor 1 (Homo sapiens) (UniProt P21709).
T1 sequence (whole entry): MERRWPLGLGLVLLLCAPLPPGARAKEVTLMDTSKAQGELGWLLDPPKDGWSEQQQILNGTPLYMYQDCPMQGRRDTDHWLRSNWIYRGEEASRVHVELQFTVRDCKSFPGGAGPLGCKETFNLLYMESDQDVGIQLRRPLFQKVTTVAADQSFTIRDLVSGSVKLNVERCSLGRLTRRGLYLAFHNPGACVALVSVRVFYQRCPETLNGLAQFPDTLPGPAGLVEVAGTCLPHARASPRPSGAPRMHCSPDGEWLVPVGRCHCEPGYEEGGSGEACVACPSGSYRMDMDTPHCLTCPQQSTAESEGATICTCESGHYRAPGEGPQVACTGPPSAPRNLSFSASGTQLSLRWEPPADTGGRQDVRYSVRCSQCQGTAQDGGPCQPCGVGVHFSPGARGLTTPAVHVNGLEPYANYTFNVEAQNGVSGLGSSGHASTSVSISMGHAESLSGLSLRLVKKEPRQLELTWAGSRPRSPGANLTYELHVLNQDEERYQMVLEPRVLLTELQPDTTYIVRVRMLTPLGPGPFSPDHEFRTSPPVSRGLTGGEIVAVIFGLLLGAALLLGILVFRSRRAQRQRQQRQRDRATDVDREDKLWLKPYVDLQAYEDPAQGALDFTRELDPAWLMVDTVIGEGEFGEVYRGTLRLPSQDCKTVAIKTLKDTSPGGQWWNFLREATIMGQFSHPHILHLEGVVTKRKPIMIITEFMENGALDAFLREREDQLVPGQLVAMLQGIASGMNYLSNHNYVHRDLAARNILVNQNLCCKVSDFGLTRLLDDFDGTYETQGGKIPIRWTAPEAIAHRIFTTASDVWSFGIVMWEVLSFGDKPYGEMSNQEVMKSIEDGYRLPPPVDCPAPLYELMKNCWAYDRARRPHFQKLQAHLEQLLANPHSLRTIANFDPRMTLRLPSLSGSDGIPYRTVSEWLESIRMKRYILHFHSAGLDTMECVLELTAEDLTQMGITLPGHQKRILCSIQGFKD
The experiment is described as follows: Inhibition of human wild type partial length EphA1 (V588 to I913 residues) expressed in bacterial expression system at 1 uM by Kinomescan method.

In experiment [2] the target is T2, Cyclin-G-associated kinase (Homo sapiens, UniProt O14976).
T2 sequence (O14976 whole entry): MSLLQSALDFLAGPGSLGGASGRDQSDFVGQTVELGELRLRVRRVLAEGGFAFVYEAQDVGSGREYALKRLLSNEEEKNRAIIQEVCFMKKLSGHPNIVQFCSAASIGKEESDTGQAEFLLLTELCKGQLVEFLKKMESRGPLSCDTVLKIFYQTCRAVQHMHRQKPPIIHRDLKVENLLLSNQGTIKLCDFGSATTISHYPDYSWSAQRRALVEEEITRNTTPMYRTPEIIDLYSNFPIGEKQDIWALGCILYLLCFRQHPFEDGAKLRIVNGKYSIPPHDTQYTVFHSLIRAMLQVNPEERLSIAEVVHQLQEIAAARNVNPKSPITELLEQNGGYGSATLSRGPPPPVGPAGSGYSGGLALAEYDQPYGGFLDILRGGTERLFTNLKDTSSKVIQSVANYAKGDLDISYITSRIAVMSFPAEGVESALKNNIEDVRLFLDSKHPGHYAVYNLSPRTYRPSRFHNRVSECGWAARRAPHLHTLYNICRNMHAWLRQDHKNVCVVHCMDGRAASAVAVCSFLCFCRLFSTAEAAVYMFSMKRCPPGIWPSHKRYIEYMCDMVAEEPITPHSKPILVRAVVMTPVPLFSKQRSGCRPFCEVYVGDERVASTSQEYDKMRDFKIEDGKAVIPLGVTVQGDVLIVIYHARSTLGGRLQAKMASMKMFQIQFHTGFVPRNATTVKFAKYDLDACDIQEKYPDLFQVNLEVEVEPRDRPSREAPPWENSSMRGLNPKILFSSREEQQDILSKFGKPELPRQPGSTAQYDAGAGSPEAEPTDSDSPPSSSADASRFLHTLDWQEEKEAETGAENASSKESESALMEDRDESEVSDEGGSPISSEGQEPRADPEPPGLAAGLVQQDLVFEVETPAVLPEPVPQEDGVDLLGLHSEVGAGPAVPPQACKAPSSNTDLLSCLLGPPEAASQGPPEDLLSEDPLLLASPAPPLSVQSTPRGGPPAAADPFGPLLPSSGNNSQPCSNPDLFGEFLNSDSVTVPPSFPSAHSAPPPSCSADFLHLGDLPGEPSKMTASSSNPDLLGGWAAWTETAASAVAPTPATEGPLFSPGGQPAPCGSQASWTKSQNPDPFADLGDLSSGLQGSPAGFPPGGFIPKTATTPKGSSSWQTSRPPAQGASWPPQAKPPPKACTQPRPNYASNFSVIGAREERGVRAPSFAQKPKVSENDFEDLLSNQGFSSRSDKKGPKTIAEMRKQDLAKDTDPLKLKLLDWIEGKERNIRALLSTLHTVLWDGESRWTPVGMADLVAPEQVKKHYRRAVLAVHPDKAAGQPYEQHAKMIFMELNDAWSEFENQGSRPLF
The experiment is described as follows: Binding affinity to human wild type partial length GAK (G13 to Y338 residues) expressed in bacterial expression system by KinomeScan method.

Experiment [3] concerns the target RAF proto-oncogene serine/threonine-protein kinase (Homo sapiens) (UniProt P04049). Put plainly: Inhibition of human wild type partial length C-Raf (I330 to T640 residues) expressed in bacterial expression system at 1 uM by Kinomescan method relative to control.

The source made the active and inactive calls. The rule behind the calls is not given here.

Sequence of RAF proto-oncogene serine/threonine-protein kinase (Homo sapiens) (P04049 whole entry, the tested form may be a part): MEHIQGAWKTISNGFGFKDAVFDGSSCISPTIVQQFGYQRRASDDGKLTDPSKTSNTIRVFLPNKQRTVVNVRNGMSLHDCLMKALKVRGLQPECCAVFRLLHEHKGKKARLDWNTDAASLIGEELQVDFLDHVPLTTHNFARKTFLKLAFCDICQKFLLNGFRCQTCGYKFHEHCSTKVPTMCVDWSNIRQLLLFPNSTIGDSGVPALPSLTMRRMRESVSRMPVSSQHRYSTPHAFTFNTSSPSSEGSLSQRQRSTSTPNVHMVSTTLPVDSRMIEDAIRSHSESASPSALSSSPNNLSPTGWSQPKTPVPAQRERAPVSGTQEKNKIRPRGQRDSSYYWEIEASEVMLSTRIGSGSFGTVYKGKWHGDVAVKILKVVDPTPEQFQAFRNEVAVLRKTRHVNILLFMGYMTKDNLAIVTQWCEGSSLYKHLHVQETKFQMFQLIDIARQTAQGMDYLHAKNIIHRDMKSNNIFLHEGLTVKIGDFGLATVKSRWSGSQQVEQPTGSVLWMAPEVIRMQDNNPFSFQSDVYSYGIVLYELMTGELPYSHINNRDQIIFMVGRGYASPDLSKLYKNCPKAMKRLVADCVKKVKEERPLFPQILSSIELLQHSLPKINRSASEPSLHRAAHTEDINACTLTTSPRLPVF

Regarding `COc1cc(Nc2ccnc3cc(C(F)(F)F)ccc23)cc(OC)c1OC`, in experiment [1], the inhibition (in general, the relative decrease from the control value, in per cent) is “Active”. In experiment [2], the Kd (in general, a measure of binding affinity in units of concentration) came to 23 nM. Besides, in experiment [3], the inhibition worked out at 70%.

Consider `COc1cc(Nc2ccnc3cc(C#N)ccc23)cc(OC)c1OC`, for which, in experiment [1], the inhibition result was “Active”. In experiment [2], binding was put at a Kd of 43 nM. In addition, the inhibition in experiment [3] was found to be 70%.

In the case of `COc1cc(Nc2ccnc3cc(I)ccc23)cc(OC)c1OC`, in experiment [1], the inhibition result was “Active”. The affinity in experiment [2], expressed as Kd, was 7.6 nM. Moreover, the inhibition in experiment [3] was found to be 70%.

As for `COc1cc(Nc2ccnc3cc(Cl)ccc23)cc(OC)c1OC`, the inhibition entry in experiment [1] was “Active”. Besides, the Kd in experiment [2] was determined as 13 nM. In experiment [3], this compound displayed an inhibition of 70%.

Turning to `COc1cc(Nc2ccnc3cc(Br)ccc23)cc(OC)c1OC`, the inhibition result in experiment [1] was “Active”. The compound also yielded a Kd in experiment [2] of 8.6 nM. In experiment [3], this compound registered an inhibition of 70%.

Values taken from ChEMBL document CHEMBL4665659, “Utilizing comprehensive and mini-kinome panels to optimize the selectivity of quinoline inhibitors for cyclin G associated kinase (GAK)” (Bioorg Med Chem Lett, 2019).
